Series [1] can be described thus: Pharmacokinetics study in mice, single oral dose. Format: in vivo. As to conditions: mouse; male ICR mice, single-dose oral administration of 30 mg/kg, plasma. On the procedure:
A pharmacokinetics (PK) study was performed using male ICR mice to compare the oral absorption properties of the present compounds with tolvaptan. A test compound was suspended in a 1% hydroxypropyl methylcellulose (HPMC) solution to be adjusted to the concentration of 4.5 mg/mL. The present compounds were used as the forms obtained in the above examples (including the amorphous form) for a test compound, or used after spray drying, if needed.
Male ICR mice (7-week old) were freely fed food and water and weighed on an electronic scale. Then, a test compound was orally administered at the dose of 30 mg/kg […]. After the oral administration, blood was collected from the abdominal vena cava under isoflurane anesthesia using a 1 mL heparinized syringe with a 26 G injection needle. Blood was separated by centrifugation at 4° C., 3000 rpm for 10 minutes to give plasma in a supernatant. The plasma concentration of a test compound was measured by LC-MS/MS.
The following PK parameters were calculated using the mean plasma concentrations of unchanged substances obtained from two animals at each time point.
Cmax: Maximum plasma concentration (μg/mL)
tmax: Time-to-maximum plasma concentration (h)
AUCinf: Area under the plasma concentration-time curve from administration to infinite time (μg h/mL)

Series [2] deals with T1, rat vasopressin V1a receptor (Rattus norvegicus, UniProt P30560).
T1 construct: V1a receptor fractions derived from rat hepatic membrane; from tissue; host or cells: rat liver (hepatic membrane)
T1 sequence (P30560 whole entry): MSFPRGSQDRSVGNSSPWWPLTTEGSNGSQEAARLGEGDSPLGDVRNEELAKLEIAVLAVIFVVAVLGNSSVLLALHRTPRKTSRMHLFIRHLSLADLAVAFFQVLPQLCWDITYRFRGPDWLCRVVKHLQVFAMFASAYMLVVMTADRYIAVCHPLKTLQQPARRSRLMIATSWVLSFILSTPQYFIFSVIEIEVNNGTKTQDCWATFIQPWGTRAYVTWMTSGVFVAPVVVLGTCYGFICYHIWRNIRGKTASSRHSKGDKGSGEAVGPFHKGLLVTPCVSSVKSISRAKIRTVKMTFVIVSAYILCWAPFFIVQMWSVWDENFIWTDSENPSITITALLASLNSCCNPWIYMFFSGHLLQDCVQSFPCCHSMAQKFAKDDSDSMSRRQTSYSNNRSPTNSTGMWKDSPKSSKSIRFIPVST
In words: Binding inhibition test for rat V1a receptor (3H-AVP, rat hepatic membrane). As to conditions: inhibition of 3H-AVP binding, rat hepatic membrane V1a receptor fractions, 4° C., 2 hours; read-out: Binding affinity rV1a (IC50). On the procedure: (§1) Various compounds were studied in binding affinities for vasopressin receptors with an indicator of binding inhibition of rat vasopressin V1a receptor and vasopressin V2 receptor of ^3H-arginine vasopressin (AVP) (NET800, available from PerkinElmer Inc., Life Sciences).
(1) Binding Inhibition Test for Rat V1a Receptor (rV1aR)
50 μg of V1a receptor fractions derived from rat hepatic membrane were diluted with a reaction solution (100 mM Tris-HCl (pH 8.0), 0.1% BSA, 5 mM MgCl2, 1 mM EDTA) and added to each well of a 96-well plate. A compound was added to each well in various concentrations (0.3 nM to 100 nM), and ^3H-AVP was added thereto in the range of 1 nM to 3 nM. Reactions were carried out at 4° C. for 2 hours on the plate. Via receptor fractions were collected with a 96-well glass filter (Unifilter GF/B) after the reactions and washed with a washing solution (10 mM Tris-HCl (pH 8.0), 5 mM MgCl2, 1 mM EDTA) three times, and then the radioactivity of ^3H-AVP was measured with a scintillation counter.
(§2) ^3H-AVP binding rate in the presence of a compound was calculated by the following equation. Binding rate (%)=(B−NSB)/(TB−NSB)×100 (B: Binding amount of ^3H-AVP in the presence of each compound, NSB: Binding amount of ^3H-AVP in the presence of 1 μM of unlabeled AVP, TB: Binding amount of ^3H-AVP in the absence of 1 μM of unlabeled AVP)

Series [3] addresses T2, rat vasopressin V2 receptor (Rattus norvegicus, UniProt Q00788).
T2 construct: expressed in transfected cells; host or cells: CHO cells (rV2R-CHO)
Description: Binding inhibition test for rat V2 receptor (3H-AVP, rV2R-CHO cells). The conditions noted are these: inhibition of 3H-AVP binding, 4° C., 2 hours, read-out: Binding affinity rV2 (IC50). On the procedure:
as §1
(2) Binding Inhibition Test for Rat V2 Receptor (rV2R)
Rat V2 receptor-expressed CHO cells (rV2R—CHO) were incubated on 10% FBS-containing DMEM/F12 in a 24-well plate, and each cell was washed with D-PBS twice. A reaction solution (D-PBS containing 0.1% BSA and 0.05% sodium azide) comprising a compound in various concentrations (0.3 nM to 100 nM) was added to each well, and a certain amount of ^3H-AVP was added thereto (100-fold dilution). Reactions were carried out at 4° C. for 2 hours on the plate. Then, each well was washed with D-PBS twice and 0.1N NaOH was added to each well. The cells were collected, and the radioactivity of ^3H-AVP was measured with a scintillation counter.
as §2

Series [4] is described as follows: Metabolic stability test in human liver microsomes. The class given is in vitro ADME. The conditions noted are these: pH 7.4; human liver microsomes 1 mg/mL, test compound 1 μmol/L, NADPH and NADH, 37° C., n = 4; read-out: CLint (μL/min/mg) mean ± SD. The procedure:
Reaction System and Incubation
According to methods of Obach and Jones, et al. (methods described in R. S. Obach, Drug Metab. Dispos. 1999 (27): 1350-1359 and H. Jones and J. B. Houston, Drug Metab. Dispos. 2004 (32): 973-982), the reaction system shown below was prepared and metabolic stabilities of test compounds (the present compounds and, tolvaptan) were evaluated using the reaction system shown below. Human liver microsomes purchased from Corning Inc. were used. Test compounds were dissolved in DMSO at the concentration of 10 mmol/L and then diluted with acetonitrile to prepare a 100 μmol/L solution for use in the test. The 100 μmol/L solutions were used in the experiment.
Human liver microsome 1 mg/mL
Co-factor (NADPH and NADH) 1 mmol/L each
Magnesium chloride 5 mmol/L
100 mmol/L Potassium phosphate buffer (pH 7.4)
The reaction mixture without co-factors was pre-incubated at 37° C. for 5 minutes, and then the reaction was initiated by the addition of the co-factors. The mixture was incubated for 0, 5, 10, 20, 30, and 60 minutes after the addition of the co-factors. An aliquot of the reaction mixture was removed and added to a methanol solution containing an internal standard (IS) and mixed to terminate the reaction at each predetermined time.
After the reaction was terminated, the mixture was separated by centrifugation and the supernatant was injected into a liquid chromatograph-tandem mass spectrometer (LC-MS/MS) to measure unchanged substances remained in the reaction system. The mass spectrometer was operated in a positive ion mode of the electrospray ionization (ESI) method. Unchanged substances and the IS were detected by multiple reaction monitoring (MRM) transitions using selected precursor and product ions set.
The remaining ratios of test compounds were calculated by the following equation. Remaining ratio=(Peak area ratio of a test compound to IS at t minutes after incubation)÷(Peak area ratio of a test compound to IS at 0 minute)
The slope of X-axis (the incubation time) and Y-axis (logarithm of the remaining ratio) was calculated by a non-linear least square method. Hepatic intrinsic clearance (CLint) was calculated by the following equation. CLint(μL/min/mg)=−(Slope(min^−1))÷1(mg/mL)×1000
On the technique in general: Liver microsomes are vesicles of endoplasmic reticulum, rich in cytochrome P450 enzymes.

SMILES strings stand for the structures.

T2 sequence (Q00788 whole entry): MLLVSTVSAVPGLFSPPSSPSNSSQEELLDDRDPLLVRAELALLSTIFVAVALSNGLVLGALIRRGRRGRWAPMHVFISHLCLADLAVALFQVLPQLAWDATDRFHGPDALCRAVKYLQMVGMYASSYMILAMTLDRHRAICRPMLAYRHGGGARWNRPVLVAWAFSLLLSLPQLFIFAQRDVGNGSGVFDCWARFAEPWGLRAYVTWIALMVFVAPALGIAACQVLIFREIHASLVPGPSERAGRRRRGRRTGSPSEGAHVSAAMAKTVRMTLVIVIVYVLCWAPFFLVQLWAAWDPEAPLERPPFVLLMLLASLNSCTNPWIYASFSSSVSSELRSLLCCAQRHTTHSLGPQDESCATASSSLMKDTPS

As usually defined, the AUC(0-inf) is total exposure, with the tail of the curve extrapolated. For orientation: Cmax means the peak of the concentration-time curve. By Tmax is commonly meant the time at which the peak concentration occurs. For orientation: IC50 means the point on the concentration scale where inhibition reaches its midpoint. Consider `O=C1c2cc(F)ccc2CCN1c1ccc(C(=O)N2CCC(F)(F)[C@](O)(CO)c3cc(Cl)ccc32)cc1` [Example 187, 2-{4-[(5R)-7-chloro-4,4-difluoro-5-hydroxy-5-(hydroxymethyl)-2,3,4,5-tetrahydro-1H-1-benzazepine-1-carbonyl]phenyl}-7-fluoro-1,2,3,4-tetrahydroisoquinolin-1-one], for which, in series [1], the AUC(0-inf) came to 5440 ng·h/mL, the Cmax turned out to be 2040 ng/mL and the time to peak (Tmax) is 1 h. In addition, in series [2], the IC50 is 2.6 nM. Further, the 50% inhibitory concentration (IC50) in series [3] is 0.4 nM. The microsomal CLint at 1 μmol/L in series [4] was below 4 µL/min/mg.
As for `O=C(Nc1ccc(C(=O)N2CCC(F)(F)[C@](O)(CO)c3cc(Cl)ccc32)cc1F)c1cc(F)ccc1Cl` [Example 24, 2-chloro-N-{4-[(5R)-7-chloro-4,4-difluoro-5-hydroxy-5-(hydroxymethyl)-2,3,4,5-tetrahydro-1H-1-benzazepine-1-carbonyl]-2-fluorophenyl}-5-fluorobenzamide], in series [1], the area under the curve AUC(0-inf) came out at 44000 ng·h/mL, the highest level (Cmax) was 4080 ng/mL and the Tmax was 4 h. For the same molecule, the IC50 in series [2] worked out at 2.7 nM. In addition, the IC50 in series [3] amounted to 1.5 nM. Further, the microsomal CLint at 1 μmol/L in series [4] was below 4 µL/min/mg.
On to `O=C(Nc1ccc(C(=O)N2CCC(F)(F)C(O)(CO)c3cc(Cl)ccc32)cn1)c1ccccc1C(F)(F)F` (stereo not shown) [Example 2, N-{5-[7-chloro-4,4-difluoro-5-hydroxy-5-(hydroxymethyl)-2,3,4,5-tetrahydro-1H-1-benzazepine-1-carbonyl]pyridin-2-yl}-2-(trifluoromethyl)benzamide], for which, in series [1], the total exposure AUC(0-inf) turned out to be 95700 ng·h/mL, the maximum concentration (Cmax) worked out at 9230 ng/mL and the Tmax was determined as 1 h. For the same molecule, the IC50 in series [2] was 3.4 nM. Also, the IC50 in series [3] stood at 2.1 nM. In addition, in series [4], the microsomal CLint at 1 μmol/L was below 4 µL/min/mg.
`O=C(Nc1ccc(C(=O)N2CCC(F)(F)[C@](O)(CO)c3cc(Cl)ccc32)cn1)c1cccnc1C(F)(F)F` [Example 66, N-{5-[(5R)-7-chloro-4,4-difluoro-5-hydroxy-5-(hydroxymethyl)-2,3,4,5-tetrahydro-1H-1-benzazepine-1-carbonyl]pyridin-2-yl}-2-(trifluoromethyl)pyridine-3-carboxamide]: in series [1], the AUC(0-inf) was determined as 38300 ng·h/mL, the peak level (Cmax) was 4550 ng/mL and the time to peak (Tmax) is 1 h. In series [2], the IC50 turned out to be 21.1 nM. Besides, in series [3], the 50% inhibitory concentration (IC50) stood at 3.5 nM. Moreover, the microsomal CLint at 1 μmol/L in series [4] was below 4 µL/min/mg.
For the molecule `Cc1ccccc1C(=O)Nc1ccc(C(=O)N2CCCC(O)c3cc(Cl)ccc32)c(C)c1` (stereo not shown) [Tolvaptan, reference compound], in series [1], the total exposure AUC(0-inf) was found to be 1780 ng·h/mL, the concentration peaked (Cmax) at 682 ng/mL and the Tmax was found to be 1 h. The microsomal CLint at 1 μmol/L in series [4] turned out to be 105 ± 11 µL/min/mg.
Turning to `COc1cc(C(=O)N2CCC(F)(F)[C@](O)(CO)c3cc(Cl)ccc32)ccc1NC(=O)c1ccc(F)cc1Cl` [Example 58, 2-chloro-N-{4-[(5R)-7-chloro-4,4-difluoro-5-hydroxy-5-(hydroxymethyl)-2,3,4,5-tetrahydro-1H-1-benzazepine-1-carbonyl]-2-methoxyphenyl}-4-fluorobenzamide], in series [1], the AUC(0-inf) came to 44900 ng·h/mL, the Cmax came to 5890 ng/mL and the time of peak concentration (Tmax) was found to be 1 h. The IC50 in series [2] was 9.3 nM. Besides, the half-inhibitory concentration (IC50) in series [3] was 1.3 nM. Besides, the microsomal CLint at 1 μmol/L in series [4] was found to be 1.81 ± 2.1 µL/min/mg.
As to `O=C(Nc1ccc(C(=O)N2CCC(F)(F)[C@](O)(CO)c3cc(Cl)ccc32)cc1)c1cc(F)ccc1-c1ccccc1` [Example 153, N-{4-[(5R)-7-chloro-4,4-difluoro-5-hydroxy-5-(hydroxymethyl)-2,3,4,5-tetrahydro-1H-1-benzazepine-1-carbonyl]phenyl}-4-fluoro-[1,1′-biphenyl]-2-carboxamide], in series [1], the AUC(0-inf) was determined as 34000 ng·h/mL, the Cmax came to 5480 ng/mL and the time of peak concentration (Tmax) worked out at 1 h. For the same molecule, the IC50 in series [2] was found to be 3.6 nM. Further, the concentration for half-maximal inhibition (IC50) in series [3] was 4.5 nM. The microsomal CLint at 1 μmol/L in series [4] was 1.91 ± 2.22 µL/min/mg.
Take `O=C(Nc1ccc(C(=O)N2CCC(F)(F)[C@](O)(CO)c3cc(Cl)ccc32)cn1)c1cc(F)ccc1-c1ccccc1` [Example 96, N-{5-[(5R)-7-chloro-4,4-difluoro-5-hydroxy-5-(hydroxymethyl)-2,3,4,5-tetrahydro-1H-1-benzazepine-1-carbonyl]pyridin-2-yl}-4-fluoro-[1,1′-biphenyl]-2-carboxamide]: in series [1], the total exposure AUC(0-inf) worked out at 43000 ng·h/mL, the highest level (Cmax) was 5550 ng/mL and the Tmax turned out to be 4 h. Besides, in series [2], the IC50 was 2 nM. The IC50 in series [3] was 5 nM. The microsomal CLint at 1 μmol/L in series [4] is 0.953 ± 1.91 µL/min/mg.
`O=C(Nc1ccc(C(=O)N2CCC(F)(F)[C@](O)(CO)c3cc(Cl)ccc32)cn1)c1ccc(Cl)cc1Cl` [Example 51, 2,4-dichloro-N-{5-[(5R)-7-chloro-4,4-difluoro-5-hydroxy-5-(hydroxymethyl)-2,3,4,5-tetrahydro-1H-1-benzazepine-1-carbonyl]pyridin-2-yl}benzamide]: in series [1], the AUC(0-inf) was 53800 ng·h/mL, the highest level (Cmax) was 5070 ng/mL and the Tmax worked out at 1 h. In addition, the IC50 in series [2] was determined as 16.1 nM. The half-inhibitory concentration (IC50) in series [3] worked out at 1.7 nM. Also, the microsomal CLint at 1 μmol/L in series [4] is below 4 µL/min/mg.
As for `O=C(Nc1ccc(C(=O)N2CCC(F)(F)[C@](O)(CO)c3cc(Cl)ccc32)cn1)c1cc(F)c(Cl)cc1Cl` [Example 52, 2,4-dichloro-N-{5-[(5R)-7-chloro-4,4-difluoro-5-hydroxy-5-(hydroxymethyl)-2,3,4,5-tetrahydro-1H-1-benzazepine-1-carbonyl]pyridin-2-yl}-5-fluorobenzamide], in series [1], the total exposure AUC(0-inf) was found to be 62700 ng·h/mL, the highest concentration (Cmax) worked out at 5570 ng/mL and the Tmax was determined as 1 h. Further, in series [2], the IC50 turned out to be 8.8 nM. Moreover, the IC50 in series [3] was 3 nM. For the same molecule, the microsomal CLint at 1 μmol/L in series [4] is below 4 µL/min/mg.
